For 67 molecules, viability results are on record in paper PMC12040169 (PLOS Biology, 2025).

SMILES strings stand for the structures.

A short description of the data set: in vitro. The following applies: human, hela cells, % viability.
The term viability denotes a read-out of living cells in per cent, often relative to untreated cells. As to `O=C(Nc1ccc2n(c1=O)C[C@H]1C[C@@H]2CN(C(=O)NC2CCCCC2)C1)c1cnccn1` [CBK289076], the viability at 28.5 h, 10 µM amounted to 86.8%. The value for `O=C(Nc1ccc2n(c1=O)C[C@H]1C[C@@H]2CN(c2ncccn2)C1)c1ccccc1` [CBK289077] was 86.4%. As to `O=C(NCc1ccc2c(c1)OCO2)[C@H]1CN2CCC1C[C@@H]2Cn1cc(-c2ccccn2)nn1` (stereo partly shown) [CBK289082], the viability at 28.5 h, 10 µM was determined as 102%. For the molecule `Nc1cccc(-c2cn(C[C@H]3CC4CCN3C[C@@H]4C(=O)NC3CCCCC3)nn2)c1` (stereo partly shown) [CBK289083], the viability at 28.5 h, 10 µM turned out to be 84.2%. For `COc1ccc(-c2cn(C[C@H]3CC4CCN3C[C@@H]4C(=O)NC3CCCCC3)nn2)cc1` (stereo partly shown) [CBK289084], the viability at 28.5 h, 10 µM came to 107%. `CC(C)(C)c1cn(C[C@H]2CC3CCN2C[C@@H]3C(=O)NC2CCCCC2)nn1` (stereo partly shown) [CBK289085]: the viability at 28.5 h, 10 µM came to 83.9%.

As to `O=C(NCc1ccc(F)cc1)[C@H]1CN2CCC1C[C@@H]2Cn1cc(C2(O)CCCC2)nn1` (stereo partly shown) [CBK289093], the viability at 28.5 h, 10 µM came to 109%. The value for `CCCS(=O)(=O)NC[C@H]1C[C@@H]2CCN1C[C@@H]2c1cc(-c2ccccc2)nn1C` [CBK289095] was 93.8%. Take `Cn1nc(-c2ccccc2)cc1[C@H]1CN2CC[C@H]1C[C@@H]2CNC(=O)NCc1ccccc1` [CBK289098]: the viability at 28.5 h, 10 µM was 104%. Regarding `COc1ccc(-c2cc([C@H]3CN4CC[C@H]3C[C@@H]4CNC(=O)c3ccco3)n(C)n2)cc1` [CBK289099], the viability at 28.5 h, 10 µM was 113%. In the case of `Cn1nc(-c2cccs2)cc1[C@H]1CN2CC[C@H]1C[C@@H]2CNS(C)(=O)=O` [CBK289102], the viability at 28.5 h, 10 µM came out at 93.5%. As to `CC(C)NC(=O)NC[C@H]1C[C@@H]2CCN1C[C@@H]2c1cc(-c2cccs2)nn1C` [CBK289103], the viability at 28.5 h, 10 µM stood at 90%. Take `Cn1nc(-c2cccs2)cc1[C@H]1CN2CC[C@H]1C[C@@H]2CNC(=O)Nc1ccccc1` [CBK289104]: the viability at 28.5 h, 10 µM turned out to be 89%. For the molecule `CCNC(=O)NC[C@H]1C[C@@H]2CCN1C[C@@H]2c1cc(-c2ccccc2OC)nn1C` [CBK289105], the viability at 28.5 h, 10 µM is 118%. The value for `Cn1nc(C2CCCCC2)cc1[C@H]1CN2CC[C@H]1C[C@@H]2CNC(=O)c1ccco1` [CBK289106] was 95.3%; that for `Cn1nc(-c2ccc(F)cc2)cc1[C@H]1CN2CC[C@H]1C[C@@H]2CNC(=O)N1CCOCC1` [CBK289108] was 116%; that for `CCNC(=O)NC[C@H]1C[C@@H]2CCN1C[C@@H]2c1cc(-c2ccc(F)cc2)nn1C` [CBK289110] was 88%. The value for `CC(C)NC(=O)NC[C@H]1C[C@@H]2CC[N@]1C[C@@H]2CN1CCN(c2ccccn2)CC1` [CBK289112] was 105%; that for `O=C(NC[C@H]1C[C@@H]2CC[N@]1C[C@@H]2CN1CCN(c2ccccn2)CC1)Nc1ccsc1` [CBK289113] was 101%. Regarding `O=C(NC[C@H]1C[C@@H]2CC[N@]1C[C@@H]2CN1CCN(c2ccccn2)CC1)Nc1ccccc1` [CBK289114], the viability at 28.5 h, 10 µM is 106%. Turning to `COc1ccccc1-c1cc([C@H]2CN3CC[C@H]2C[C@@H]3CNC(=O)c2ccco2)nc(C)n1` [CBK289119], the viability at 28.5 h, 10 µM came out at 105%. The value for `Cc1nc(C2CCCC2)cc([C@H]2CN3CC[C@H]2C[C@@H]3CNC(=O)c2ccco2)n1` [CBK289120] was 109%.

For `COCC(=O)NC[C@H]1C[C@@H]2CCN1C[C@@H]2c1cc(-c2ccccc2)nc(C)n1` [CBK289123], the viability at 28.5 h, 10 µM is 89.3%.

As to `CCNC(=O)NC[C@H]1C[C@@H]2CCN1C[C@@H]2c1cc(-c2ccccc2)nc(C)n1` [CBK289125], the viability at 28.5 h, 10 µM came out at 116%. For the molecule `CC[C@H]1CN(C(=O)C2CC2)CC[C@H]1CC(=O)N(C)CC#N` [CBK289132], the viability at 28.5 h, 10 µM came out at 85.9%. For `CC[C@H]1CN(C(=O)N2CCOCC2)CC[C@H]1CC(=O)NCCOC` [CBK289134], the viability at 28.5 h, 10 µM was found to be 100%.

With `CC[C@H]1CN(C(=O)c2ccnc(Cl)c2)CC[C@H]1CC(=O)O` [CBK289139], the viability at 28.5 h, 10 µM stood at 92%.

With `CC(C)(C)NC(=O)C[C@@H]1CCNC[C@@H]1Cc1cc(-c2ccccc2)on1` [CBK289145], the viability at 28.5 h, 10 µM was 86%.

Take `O=C(C[C@@H]1CCNC[C@@H]1Cc1cc(-c2ccccc2)on1)NC1CC1` [CBK289146]: the viability at 28.5 h, 10 µM was 88%. The same measure for `O=C(C[C@@H]1CCNC[C@@H]1Cc1cc(-c2ccccc2)on1)N1CCN(c2ccccc2)CC1` [CBK289148]: 83.2%. The same measure for `CN1CCN(C(=O)C[C@@H]2CCNC[C@@H]2Cc2cc(CC3CCCCC3)on2)CC1` [CBK289151]: 84.3%.

With `COc1ccc(-c2cc(C[C@H]3CNCC[C@H]3CC(=O)N3CCN(C)CC3)no2)cc1` [CBK289152], the viability at 28.5 h, 10 µM came out at 83.8%. For the molecule `O=C(C[C@@H]1CCNC[C@@H]1Cc1cc(CN2CCCCC2)on1)N1CCCCC1` [CBK289153], the viability at 28.5 h, 10 µM stood at 86.8%.

For the molecule `COc1ccc2c(c1)CCN=C2C[C@H]1CN(C(=O)NC(C)C)CC[C@H]1CC(=O)O` [CBK289156], the viability at 28.5 h, 10 µM amounted to 90%. The same measure for `COc1ccc2c(c1)C(C[C@H]1CN(C(=O)C3CC3)CC[C@H]1CC(=O)O)=NCC2` [CBK289157]: 85.7%; for `CN(C)c1ccc(C(=O)N2CC[C@@H](CC(=O)O)[C@@H](CC3=NCCc4ccccc43)C2)cc1` [CBK289159]: 94.8%. The value for `O=C(O)C[C@@H]1CCN(C(=O)c2ccc3c(c2)OCO3)C[C@@H]1CC1=NCCc2ccccc21` [CBK289160] was 110%; that for `Cc1ccc2c(c1)C(C[C@H]1CN(C(=O)c3ccco3)CC[C@H]1CC(=O)O)=NCC2` [CBK289162] was 79.1%. With `COc1cccc2c1CCN=C2C[C@H]1CN(C(=O)C2CC2)CC[C@H]1CC(=O)O` [CBK289164], the viability at 28.5 h, 10 µM came to 94.5%. Take `Cc1nn(-c2ccccn2)c(C)c1[C@@H]1C=C[C@@H](NC(=O)NC(C)C)C1` [CBK289168]: the viability at 28.5 h, 10 µM stood at 91.4%. Take `CCNC(=O)N[C@@H]1C=C[C@@H](c2c(C)nn(CCC#N)c2C)C1` [CBK289171]: the viability at 28.5 h, 10 µM was found to be 111%. For the molecule `Cc1nn(CCC#N)c(C)c1[C@@H]1C=C[C@@H](NC(=O)NC(C)C)C1` [CBK289172], the viability at 28.5 h, 10 µM worked out at 89.2%. Regarding `O=C(Nc1ccc2n(c1=O)C[C@H]1C[C@@H]2CN(C(=O)COc2ccccc2)C1)C1CCCCC1` [CBK289175], the viability at 28.5 h, 10 µM was 91.9%. Turning to `N#Cc1ccc(C(=O)N2C[C@@H]3C[C@H](C2)c2ccc(-c4cccs4)c(=O)n2C3)cc1` [CBK289180], the viability at 28.5 h, 10 µM was 86%. Consider `Cc1ccccc1-c1ccc2n(c1=O)C[C@H]1C[C@@H]2CN(C(=O)CCC(=O)O)C1` [CBK289181], for which the viability at 28.5 h, 10 µM stood at 111%.

Consider `O=C(NC1CCCCC1)N1C[C@@H]2C[C@H](C1)c1ccc(-c3cccnc3)c(=O)n1C2` [CBK289183], for which the viability at 28.5 h, 10 µM worked out at 93.6%. With `O=C(c1ccc(F)cc1)N1C[C@@H]2C[C@H](C1)c1ccc(-c3cncnc3)c(=O)n1C2` [CBK289185], the viability at 28.5 h, 10 µM was found to be 92.9%. The value for `CC(=O)Nc1ccc(-c2ccc3n(c2=O)C[C@H]2C[C@@H]3CN(C(=O)C3CCCCC3)C2)cc1` [CBK289188] was 84.6%; that for `COc1ccc(-c2ccc(=O)n3c2[C@@H]2C[C@@H](CN(C(=O)NC4CCCCC4)C2)C3)cc1` [CBK289189] was 82.1%. `COc1ccccc1NC(=O)N1C[C@@H]2C[C@H](C1)c1c(-c3cccs3)ccc(=O)n1C2` [CBK289191]: the viability at 28.5 h, 10 µM came out at 107%. Regarding `COc1ccccc1NC(=O)N1C[C@@H]2C[C@H](C1)c1c(-c3ccccc3F)ccc(=O)n1C2` [CBK289192], the viability at 28.5 h, 10 µM stood at 92.7%. The value for `O=C(Nc1ccccc1)N1C[C@@H]2C[C@H](C1)c1c(-c3cccnc3)ccc(=O)n1C2` [CBK289193] was 92.3%; that for `O=C(c1cccs1)N1C[C@@H]2C[C@H](C1)c1c(-c3cncnc3)ccc(=O)n1C2` [CBK289194] was 90.7%; that for `N#Cc1ccc(C(=O)N2C[C@@H]3C[C@H](C2)c2c(-c4cccc(C#N)c4)ccc(=O)n2C3)cc1` [CBK289196] was 104%. With `COc1ccccc1NC(=O)N1C[C@@H]2C[C@H](C1)c1c(-c3cccc(C#N)c3)ccc(=O)n1C2` [CBK289197], the viability at 28.5 h, 10 µM turned out to be 92.8%. For the molecule `CC(=O)Nc1ccc(-c2ccc(=O)n3c2[C@@H]2C[C@@H](CN(C(=O)c4ccccc4)C2)C3)cc1` [CBK289198], the viability at 28.5 h, 10 µM was found to be 89.4%. Regarding `CSCC(=O)N1C[C@@H]2C[C@H](C1)c1c(-c3ccc(NC(C)=O)cc3)ccc(=O)n1C2` [CBK289200], the viability at 28.5 h, 10 µM came out at 89.7%.

Take `CC(=O)N1C[C@@H]2C[C@H](C1)c1ccc(NC(=O)c3ccc(C#N)cc3)c(=O)n1C2` [CBK289202]: the viability at 28.5 h, 10 µM was determined as 90.6%. The value for `COc1ccc(CC(=O)Nc2ccc3n(c2=O)C[C@H]2C[C@@H]3CN(C(C)=O)C2)cc1` [CBK289203] was 99.1%; that for `CN(C)CC(=O)Nc1ccc2n(c1=O)C[C@H]1C[C@@H]2CN(Cc2ccccn2)C1` [CBK289206] was 107%; that for `CC1=C[C@@H](CNC(=O)c2ccccn2)[C@H](C(C)C)C[C@H]1CC(=O)N1CCCC1` [CBK289207] was 86.5%.

As for `CC(=O)NC[C@@H]1C=C(C)[C@H](CC(=O)Nc2ccccn2)C[C@H]1C(C)C` [CBK289209], the viability at 28.5 h, 10 µM was determined as 92.3%. Take `CC1=C[C@@H](CNS(=O)(=O)c2cccs2)[C@H](C(C)C)C[C@H]1CC(=O)O` [CBK289210]: the viability at 28.5 h, 10 µM is 92.4%. `CC1=C[C@@H](CNC(=O)c2ccccc2)[C@H](C(C)C)C[C@H]1CC(=O)O` [CBK289213]: the viability at 28.5 h, 10 µM was 102%. `CC(=O)N1CCN(C(=O)C[C@@H]2C[C@@H](C(C)C)[C@H](CC#N)C=C2C)CC1` [CBK289214]: the viability at 28.5 h, 10 µM worked out at 103%. In the case of `CC1=C[C@@H](CC#N)[C@H](C(C)C)C[C@H]1CC(=O)Nc1ccccn1` [CBK289215], the viability at 28.5 h, 10 µM was determined as 87%.

For the molecule `COc1ccc(NC(=O)C[C@@H]2C[C@@H](C(C)C)[C@H](CC#N)C=C2C)cn1` [CBK289216], the viability at 28.5 h, 10 µM amounted to 85.7%.
